Source: US20250326713A1, “INHIBITORS OF MsbA AS ANTIBIOTICS, PHARMACEUTICAL COMPOSITIONS, AND USES THEREOF” (priority 2022, published 2025)
Values after ≈ are worked out from the molar mass of the structure shown.

Test system: various strains of bacteria
Assay: Antimicrobial potency: bacterial growth inhibition by OD600 (Antibacterial assay 1, MITC95)
Type: cell-based, A. baumannii
Details: Acinetobacter baumannii, 20 h, lowest concentration giving >95% growth inhibition, CAMHB, 18-22 h
Experimental: The concentrations of compounds required to inhibit the growth of various strains of bacteria were determined in an assay that assessed bacterial growth by measuring optical density at 600 nm (OD600). Test articles were dissolved in 100% DMSO and serially diluted two-fold from their maximal concentration in 100% DMSO. Forty-nine μl of bacterial inoculum (at approx. 2×10^5 cfu/mL in CAMHB) were put into wells of an assay plate. One μl of compound or DMSO was transferred from the source plate to the assay plate. The completed assay plates were then incubated at 35+2degC for 18-22 h. Bacterial growth was measured by reading OD600 on a spectrophotometer. Data analysis calculates the lowest concentration of compound which results in >95% growth inhibition (minimum inhibitory threshold concentration 95%, MITC95).

Compound	MIC
O=C(O)c1cc(NCC2CC(NCc3ccc(NS(=O)(=O)N4CCOC(c5ccc(F)cc5)C4)c(C(=O)O)c3)C2)ccc1NS(=O)(=O)c1cnn(-c2ccc(F)cc2)c1 (stereo not shown) [Compound 36]	0.0489 µM (≈ 0.0417 µg/mL)
O=C(O)c1cc(COC2CN(Cc3ccc(NS(=O)(=O)c4cnn(-c5ccc(Cl)cc5)c4)c(C(=O)O)c3)C2)ccc1NS(=O)(=O)c1cnn(-c2ccc(Cl)cc2)c1 [Compound 37, 5-(((1-(3-carboxy-4-(1-(4-chlorophenyl)-1H-pyrazole-4-sulfonamido)benzyl)azetidin-3-yl)oxy)methyl)-2-(1-(4-chlorophenyl)-1H-pyrazole-4-sulfonamido)benzoic acid]	0.0692 µM (≈ 0.059 µg/mL)
O=C(O)c1cc(COC2CN(Cc3ccc(NS(=O)(=O)c4cnn(-c5ccc(F)cc5)c4)c(C(=O)O)c3)C2)ccc1NS(=O)(=O)c1cnn(-c2ccc(F)cc2)c1 [Compound 38]	0.391 µM (≈ 0.321 µg/mL)
O=C(O)c1cc(CN2CC(Oc3ccc(NS(=O)(=O)c4cnn(-c5ccc(F)cc5)c4)c(C(=O)O)c3)C2)ccc1NS(=O)(=O)CCCCCCc1ccc(Cl)cc1 [Compound 40]	0.0489 µM (≈ 0.0411 µg/mL)
O=C(O)c1cc(CN2CC(Oc3ccc(NS(=O)(=O)c4cnn(-c5ccc(Cl)cc5)c4)c(C(=O)O)c3)C2)ccc1NS(=O)(=O)CCCCc1ccc(Cl)cc1 [Compound 41]	0.0122 µM (≈ 0.0101 µg/mL)
O=C(O)c1cc(CN2CC(Oc3ccc(NS(=O)(=O)c4cnn(-c5ccc(Cl)cc5)c4)c(C(=O)O)c3)C2)ccc1NS(=O)(=O)CCCc1ccc(F)cc1 [Compound 42]	0.0489 µM (≈ 0.039 µg/mL)
O=C(O)c1cc(CN2CC(Oc3ccc(NS(=O)(=O)c4cnn(-c5ccc(F)cc5)c4)c(C(=O)O)c3)C2)ccc1NS(=O)(=O)CCCc1ccc(Cl)cc1 [Compound 43]	0.0489 µM (≈ 0.039 µg/mL)
O=C(O)c1cc(CN2CC(Oc3ccc(NS(=O)(=O)N4CCOC(c5ccc(F)cc5)C4)c(C(=O)O)c3)C2)ccc1NS(=O)(=O)N1CCOC(c2ccc(F)cc2)C1 (stereo not shown) [Compound 44, 5-((1-(3-carboxy-4-((2-(4-fluorophenyl)morpholine)-4-sulfonamido)benzyl)azetidin-3-yl)oxy)-2-((2-(4-fluorophenyl)morpholine)-4-sulfonamido)benzoic acid]	0.391 µM (≈ 0.33 µg/mL)
CC1(Oc2ccc(NS(=O)(=O)N3CCOC(c4ccc(F)cc4)C3)c(C(=O)O)c2)CN(Cc2ccc(NS(=O)(=O)N3CCOC(c4ccc(F)cc4)C3)c(C(=O)O)c2)C1 (stereo not shown) [Compound 45]	0.0978 µM (≈ 0.0839 µg/mL)
CC1(Oc2ccc(NS(=O)(=O)N3CCOC(c4ccc(Cl)cc4)C3)c(C(=O)O)c2)CN(Cc2ccc(NS(=O)(=O)N3CCOC(c4ccc(Cl)cc4)C3)c(C(=O)O)c2)C1 (stereo not shown) [Compound 46]	0.391 µM (≈ 0.348 µg/mL)
O=C(O)c1cc(OC2CN(Cc3ccc(NS(=O)(=O)N4CCOC(c5ccc(F)cc5)C4)c(C(=O)O)c3)C2)ccc1NS(=O)(=O)N1CCOC(CCO)C1 (stereo not shown) [Compound 47]	1.57 µM (≈ 1.25 µg/mL)
O=C(O)c1cc(CN[C@H]2C[C@@H](NCc3ccc(NS(=O)(=O)c4cnn(-c5ccc(Cl)cc5)c4)c(C(=O)O)c3)C2)ccc1NS(=O)(=O)c1cnn(-c2ccc(Cl)cc2)c1 [Compound 48, 5-((((1s, 3s)-3-((3-carboxy-4-((1-(4-chlorophenyl)-1H-pyrazole)-4-sulfonamido)benzyl)amino)cyclobutyl)amino)methyl)-2-((1-(4-chlorophenyl)-1H-pyrazole)-4-sulfonamido)benzoic acid]	0.321 µM (≈ 0.278 µg/mL)
O=C(O)c1cc(CN[C@H]2C[C@@H](NCc3ccc(NS(=O)(=O)c4cnn(-c5ccc(F)cc5)c4)c(C(=O)O)c3)C2)ccc1NS(=O)(=O)c1cnn(-c2ccc(F)cc2)c1 [Compound 49]	1.56 µM (≈ 1.3 µg/mL)
O=C(O)c1cc(CNC23CCC(NCc4ccc(NS(=O)(=O)c5cnn(-c6ccc(Cl)cc6)c5)c(C(=O)O)c4)(C2)C3)ccc1NS(=O)(=O)c1cnn(-c2ccc(Cl)cc2)c1 [Compound 50]	0.391 µM (≈ 0.349 µg/mL)
C[C@]1(NCc2ccc(NS(=O)(=O)c3cnn(-c4ccc(Cl)cc4)c3)c(C(=O)O)c2)C[C@@H](NCc2ccc(NS(=O)(=O)c3cnn(-c4ccc(Cl)cc4)c3)c(C(=O)O)c2)C1 [Compound 51]	3.13 µM (≈ 2.75 µg/mL)
CS(=O)(=O)NC(=O)c1cc(OC2CN(Cc3ccc(NS(=O)(=O)c4cnn(-c5ccc(F)cc5)c4)c(C(=O)O)c3)C2)ccc1NS(=O)(=O)c1cnn(-c2ccc(F)cc2)c1 [Compound 52, 2-((1-(4-fluorophenyl)-1H-pyrazole)-4-sulfonamido)-5-((3-(4-((1-(4-fluorophenyl)-1H-pyrazole)-4-sulfonamido)-3-((methylsulfonyl)carbamoyl)phenoxy)azetidin-1-yl)methyl)benzoic acid]	0.553 µM (≈ 0.488 µg/mL)
O=C(NCc1ccc(Cl)cc1)C(=O)Nc1ccc(OC2CN(Cc3ccc(NS(=O)(=O)c4ccc(-c5ccc(Cl)cc5)cc4)c(C(=O)O)c3)C2)cc1C(=O)O [Compound 54, 5-((1-(3-carboxy-4-((4′-chloro-[1,1′-biphenyl])-4-sulfonamido)benzyl)azetidin-3-yl)oxy)-2-(2-((4-chlorobenzyl)amino)-2-oxoacetamido)benzoic acid]	0.0346 µM (≈ 0.0278 µg/mL)
O=C(NCc1ccc(Cl)cc1)C(=O)Nc1ccc(CN2CC(Oc3ccc(NS(=O)(=O)N4CCOC(c5ccc(F)cc5)C4)c(C(=O)O)c3)C2)cc1C(=O)O (stereo not shown) [Compound 56]	0.0978 µM (≈ 0.0779 µg/mL)

Compound	MIC
O=C(NCc1ccc(Cl)cc1)C(=O)Nc1ccc(OC2CN(Cc3ccc(NS(=O)(=O)c4cnn(-c5ccc(Cl)cc5)c4)c(C(=O)O)c3)C2)cc1C(=O)O [Compound 58]	0.0245 µM (≈ 0.0194 µg/mL)
O=C(NCc1ccc(Cl)cc1)C(=O)Nc1ccc(OC2CN(Cc3ccc(NS(=O)(=O)c4cc(-c5ccc(F)cc5)ns4)c(C(=O)O)c3)C2)cc1C(=O)O [Compound 59]	0.0245 µM (≈ 0.0195 µg/mL)
O=C(NCc1ccc(Cl)cc1)C(=O)Nc1ccc(OC2CN(Cc3ccc(NS(=O)(=O)N4CCOC(c5ccc(Cl)cc5)C4)c(C(=O)O)c3)C2)cc1C(=O)O (stereo not shown) [Compound 60]	0.0122 µM (≈ 0.00991 µg/mL)
O=C(NCc1ccc(Cl)cc1)C(=O)Nc1ccc(OC2CN(Cc3ccc(NS(=O)(=O)CCc4ccc(Cl)cc4)c(C(=O)O)c3)C2)cc1C(=O)O [Compound 61]	0.196 µM (≈ 0.148 µg/mL)
O=C(NCc1ccccc1)C(=O)Nc1ccc(OC2CN(Cc3ccc(NS(=O)(=O)c4ccc(-c5ccc(Cl)cc5)cc4)c(C(=O)O)c3)C2)cc1C(=O)O [Compound 62]	< 0.0488 µM
O=C(NCc1cccc(Cl)c1)C(=O)Nc1ccc(OC2CN(Cc3ccc(NS(=O)(=O)c4ccc(-c5ccc(Cl)cc5)cc4)c(C(=O)O)c3)C2)cc1C(=O)O [Compound 63]	0.196 µM (≈ 0.158 µg/mL)
O=C(CCc1ccc(Cl)cc1)Nc1ccc(OC2CN(Cc3ccc(NS(=O)(=O)c4cnn(-c5ccc(Cl)cc5)c4)c(C(=O)O)c3)C2)cc1C(=O)O [Compound 65, 5-((1-(3-carboxy-4-((1-(4-chlorophenyl)-1H-pyrazole)-4-sulfonamido)-benzyl)azetidin-3-yl)oxy)-2-(3-(4-chlorophenyl)propanamido)benzoic acid]	0.0489 µM (≈ 0.0374 µg/mL)
O=C(CCCCCc1ccccc1)Nc1ccc(OC2CN(Cc3ccc(NS(=O)(=O)c4cnn(-c5ccc(Cl)cc5)c4)c(C(=O)O)c3)C2)cc1C(=O)O [Compound 66]	0.0489 µM (≈ 0.0378 µg/mL)
O=C(Cc1cccc(Cl)c1)Nc1ccc(OC2CN(Cc3ccc(NS(=O)(=O)c4cc(-c5ccc(F)cc5)ns4)c(C(=O)O)c3)C2)cc1C(=O)O [Compound 67]	0.0245 µM (≈ 0.0184 µg/mL)
O=C(CCCc1ccc(Cl)cc1)Nc1ccc(OC2CN(Cc3ccc(NS(=O)(=O)c4cnn(-c5ccc(Cl)cc5)c4)c(C(=O)O)c3)C2)cc1C(=O)O [Compound 69]	0.0245 µM (≈ 0.0191 µg/mL)
O=C(CCc1ccc(Cl)c(Cl)c1)Nc1ccc(OC2CN(Cc3ccc(NS(=O)(=O)c4cnn(-c5ccc(Cl)cc5)c4)c(C(=O)O)c3)C2)cc1C(=O)O [Compound 71]	0.0978 µM (≈ 0.0782 µg/mL)
O=C(CCCc1ccccc1)Nc1ccc(OC2CN(Cc3ccc(NS(=O)(=O)c4cnn(-c5ccc(Cl)cc5)c4)c(C(=O)O)c3)C2)cc1C(=O)O [Compound 72]	0.0978 µM (≈ 0.0728 µg/mL)
O=C(Cc1cccc(Cl)c1)Nc1ccc(OC2CN(Cc3ccc(NS(=O)(=O)c4cnn(-c5ccc(Cl)cc5)c4)c(C(=O)O)c3)C2)cc1C(=O)O [Compound 73]	0.196 µM (≈ 0.147 µg/mL)
O=C(CCCCC(c1ccccc1)c1ccccc1)Nc1ccc(OC2CN(Cc3ccc(NS(=O)(=O)c4cnn(-c5ccc(Cl)cc5)c4)c(C(=O)O)c3)C2)cc1C(=O)O [Compound 74]	0.31 µM (≈ 0.263 µg/mL)
O=C(CCCC(=O)c1ccc(F)cc1)Nc1ccc(OC2CN(Cc3ccc(NS(=O)(=O)c4cnn(-c5ccc(Cl)cc5)c4)c(C(=O)O)c3)C2)cc1C(=O)O [Compound 75]	0.277 µM (≈ 0.219 µg/mL)
O=C(O)c1cc(CN2CC(Oc3ccc(NS(=O)(=O)CCc4ccc(F)cc4)c(C(=O)O)c3)C2)ccc1NS(=O)(=O)CCc1ccc(F)cc1 [Compound 78, 5-((1-(3-carboxy-4-((2-(4-fluorophenyl)ethyl)sulfonamido)benzyl)azetidin-3-yl)oxy)-2-((2-(4-fluorophenyl)ethyl)sulfonamido)benzoic acid]	0.782 µM (≈ 0.571 µg/mL)
O=C(O)c1cc(CN2CC(Oc3ccc(NS(=O)(=O)CCc4ccc(Cl)cc4)c(C(=O)O)c3)C2)ccc1NS(=O)(=O)CCc1ccc(Cl)cc1 [Compound 79]	0.0978 µM (≈ 0.0746 µg/mL)
O=C(O)c1cc(CN2CC(Oc3ccc(NS(=O)(=O)N4CC(Oc5ccc(F)cc5)C4)c(C(=O)O)c3)C2)ccc1NS(=O)(=O)N1CC(Oc2ccc(F)cc2)C1 [Compound 80, 5-((1-(3-carboxy-4-((3-(4-fluorophenoxy)azetidine)-1-sulfonamido)benzyl)azetidin-3-yl)oxy)-2-((3-(4-fluorophenoxy)azetidine)-1-sulfonamido)benzoic acid]	0.0122 µM (≈ 0.00995 µg/mL)

Same assay, conditions: lowest concentration giving >95% growth inhibition, CAMHB, 18-22 h

Compound	MIC
O=C(O)c1cc(OC2CN(Cc3ccc(NS(=O)(=O)c4ccc(-c5ccc(Cl)cc5)cc4)c(C(=O)O)c3)C2)ccc1NS(=O)(=O)CCc1ccc(F)cc1 [Compound 81, 5-((3-(3-carboxy-4-((2-(4-fluorophenyl)ethyl)sulfonamido)phenoxy)azetidin-1-yl)methyl)-2-((4′-chloro-[1, l′-biphenyl])-4-sulfonamido)benzoic acid]	0.0122 µM (≈ 0.00969 µg/mL)
